# Data: ChEMBL document CHEMBL4265925, “Synthesis of 5H-pyrido[3,2-b]pyrrolizin-5-one tripentone analogs with antitumor activity” (Eur J Med Chem, 2018)
# Calls of active or inactive are those of the source. The rule behind the calls is not given here.
# What was measured:
# HCT-116 [1] = experiment: Antiproliferative activity against human HCT116 cells after 72 hrs by MTT assay; format: functional, cell-based; conditions: HCT-116, 72 h
# MCF7 [2] = experiment: Antiproliferative activity against human MCF7 cells after 72 hrs by MTT assay; format: functional, cell-based; conditions: MCF7, 72 h
# Caco-2 = experiment: Cytotoxicity against human Caco2 cells assessed as reduction in cell viability at 1 to 10 uM after 72 hrs by MTT assay; format: cell-based; conditions: caco-2, 72 h
# [3] = Inhibition of sheep brain tubulin polymerization incubated at 37 degreeC for 10 mins followed by incubated at 0 degreeC for 5 mins; set-up: species or system Ovis aries
# MCF7 [4] = experiment: Induction of apoptosis in human MCF7 cells assessed as early apoptotic cells at 3 uM measured after 48 hrs by Annexin-V-FITC/propidium iodide staining based flow cytometric method (reference value: 0.1%); format: functional
# MCF7 [5] = experiment: Induction of apoptosis in human MCF7 cells assessed as late apoptotic cells at 3 uM measured after 48 hrs by Annexin-V-FITC/propidium iodide staining based flow cytometric method (reference value: 0%); format: functional
# MCF7 [6] = experiment: Induction of apoptosis in human MCF7 cells assessed as necrotic cells at 3 uM measured after 48 hrs by Annexin-V-FITC/propidium iodide staining based flow cytometric method (reference value: 0%); format: functional
# MCF7 [7] = experiment: Induction of apoptosis in human MCF7 cells assessed as viable cells at 3 uM measured after 48 hrs by Annexin-V-FITC/propidium iodide staining based flow cytometric method (reference value: 99.9%); format: functional; conditions: MCF7, 48 h, read-out: Activity
# HCT-116 [8] = experiment: Induction of apoptosis in human HCT116 cells assessed as early apoptotic cells at 0.1 uM measured after 48 hrs by Annexin-V-FITC/propidium iodide staining based flow cytometric method (reference value: 0.4%); format: functional
# HCT-116 [9] = experiment: Induction of apoptosis in human HCT116 cells assessed as late apoptotic cells at 0.1 uM measured after 48 hrs by Annexin-V-FITC/propidium iodide staining based flow cytometric method (reference value: 0%); format: functional
# HCT-116 [10] = experiment: Induction of apoptosis in human HCT116 cells assessed as necrotic cells at 0.1 uM measured after 48 hrs by Annexin-V-FITC/propidium iodide staining based flow cytometric method (reference value: 0%); format: functional
# HCT-116 [11] = experiment: Induction of apoptosis in human HCT116 cells assessed as viable cells at 0.1 uM measured after 48 hrs by Annexin-V-FITC/propidium iodide staining based flow cytometric method (reference value: 99.6%); format: functional; conditions: HCT-116, 48 h, read-out: Activity
# MCF7 [12] = experiment: Cell cycle arrest in human MCF7 cells assessed as increase in accumulation at subG0/G1 phase at 3 uM after 48 hrs by propidium iodide/RNase staining based FACS analysis; format: functional
# HCT-116 [13] = experiment: Cell cycle arrest human HCT116 cells assessed as increase in accumulation at subG0/G1 phase at 0.1 uM after 48 hrs by propidium iodide/RNase staining based FACS analysis; format: functional
# MCF7 [14] = experiment: Cell cycle arrest in human MCF7 cells assessed as increase in accumulation at G2/M phase at 3 uM after 48 hrs by propidium iodide/RNase staining based FACS analysis; format: functional
# HCT-116 [15] = experiment: Cell cycle arrest human HCT116 cells assessed as increase in accumulation at G2/M phase at 0.1 uM after 48 hrs by propidium iodide/RNase staining based FACS analysis; format: functional
# MCF7 [16] = experiment: Cell cycle arrest in human MCF7 cells assessed as decrease in accumulation at G1 phase at 3 uM after 48 hrs by propidium iodide/RNase staining based FACS analysis; format: functional
# HCT-116 [17] = experiment: Cell cycle arrest human HCT116 cells assessed as decrease in accumulation at G1 phase at 0.1 uM after 48 hrs by propidium iodide/RNase staining based FACS analysis; format: functional
# MCF7 [18] = experiment: Cell cycle arrest in human MCF7 cells assessed as decrease in accumulation at S phase at 3 uM after 48 hrs by propidium iodide/RNase staining based FACS analysis; format: functional
# HCT-116 [19] = experiment: Cell cycle arrest human HCT116 cells assessed as decrease in accumulation at S phase at 0.1 uM after 48 hrs by propidium iodide/RNase staining based FACS analysis; format: functional
# Sus scrofa [20] = organism: Sus scrofa; experiment: Inhibition of porcine brain tubulin polymerization at 25 uM measured every 20 secs for 60 mins
# Sus scrofa [21] = organism: Sus scrofa; experiment: Induction of porcine brain tubulin polymerization at 10 uM measured every 20 secs for 60 mins
# MCF7 [22] = experiment: Induction of apoptosis in human MCF7 cells assessed as early apoptotic cells at 2 uM measured after 48 hrs by Annexin-V-FITC/propidium iodide staining based flow cytometric method (reference value: 0.1%); format: functional
# MCF7 [23] = experiment: Induction of apoptosis in human MCF7 cells assessed as late apoptotic cells at 2 uM measured after 48 hrs by Annexin-V-FITC/propidium iodide staining based flow cytometric method (reference value: 0%); format: functional
# MCF7 [24] = experiment: Induction of apoptosis in human MCF7 cells assessed as necrotic cells at 2 uM measured after 48 hrs by Annexin-V-FITC/propidium iodide staining based flow cytometric method (reference value: 0%); format: functional
# MCF7 [25] = experiment: Induction of apoptosis in human MCF7 cells assessed as viable cells at 2 uM measured after 48 hrs by Annexin-V-FITC/propidium iodide staining based flow cytometric method (reference value: 99.9%); format: functional; conditions: MCF7, 48 h, read-out: Activity
# HCT-116 [26] = experiment: Induction of apoptosis in human HCT116 cells assessed as early apoptotic cells at 0.2 uM measured after 48 hrs by Annexin-V-FITC/propidium iodide staining based flow cytometric method (reference value: 0.4%); format: functional
# HCT-116 [27] = experiment: Induction of apoptosis in human HCT116 cells assessed as late apoptotic cells at 0.2 uM measured after 48 hrs by Annexin-V-FITC/propidium iodide staining based flow cytometric method (reference value: 0%); format: functional
# HCT-116 [28] = experiment: Induction of apoptosis in human HCT116 cells assessed as necrotic cells at 0.2 uM measured after 48 hrs by Annexin-V-FITC/propidium iodide staining based flow cytometric method (reference value: 0%); format: functional
# HCT-116 [29] = experiment: Induction of apoptosis in human HCT116 cells assessed as viable cells at 0.2 uM measured after 48 hrs by Annexin-V-FITC/propidium iodide staining based flow cytometric method (reference value: 99.6%); format: functional; conditions: HCT-116, 48 h, read-out: Activity
# MCF7 [30] = experiment: Cell cycle arrest in human MCF7 cells assessed as increase in accumulation at subG0/G1 phase at 2 uM after 48 hrs by propidium iodide/RNase staining based FACS analysis; format: functional
# HCT-116 [31] = experiment: Cell cycle arrest human HCT116 cells assessed as increase in accumulation at subG0/G1 phase at 0.2 uM after 48 hrs by propidium iodide/RNase staining based FACS analysis; format: functional
# MCF7 [32] = experiment: Cell cycle arrest in human MCF7 cells assessed as increase in accumulation at G2/M phase at 2 uM after 48 hrs by propidium iodide/RNase staining based FACS analysis; format: functional
# HCT-116 [33] = experiment: Cell cycle arrest human HCT116 cells assessed as increase in accumulation at G2/M phase at 0.2 uM after 48 hrs by propidium iodide/RNase staining based FACS analysis; format: functional
# MCF7 [34] = experiment: Cell cycle arrest in human MCF7 cells assessed as decrease in accumulation at G1 phase at 2 uM after 48 hrs by propidium iodide/RNase staining based FACS analysis; format: functional
# HCT-116 [35] = experiment: Cell cycle arrest human HCT116 cells assessed as decrease in accumulation at G1 phase at 0.2 uM after 48 hrs by propidium iodide/RNase staining based FACS analysis; format: functional
# MCF7 [36] = experiment: Cell cycle arrest in human MCF7 cells assessed as decrease in accumulation at S phase at 2 uM after 48 hrs by propidium iodide/RNase staining based FACS analysis; format: functional
# HCT-116 [37] = experiment: Cell cycle arrest human HCT116 cells assessed as decrease in accumulation at S phase at 0.2 uM after 48 hrs by propidium iodide/RNase staining based FACS analysis; format: functional
# HCT-116 [38] = experiment: Induction of apoptosis in human HCT116 cells assessed as early apoptotic cells at 0.3 uM measured after 48 hrs by Annexin-V-FITC/propidium iodide staining based flow cytometric method (reference value: 0.4%); format: functional
# HCT-116 [39] = experiment: Induction of apoptosis in human HCT116 cells assessed as late apoptotic cells at 0.3 uM measured after 48 hrs by Annexin-V-FITC/propidium iodide staining based flow cytometric method (reference value: 0%); format: functional
# HCT-116 [40] = experiment: Induction of apoptosis in human HCT116 cells assessed as necrotic cells at 0.3 uM measured after 48 hrs by Annexin-V-FITC/propidium iodide staining based flow cytometric method (reference value: 0%); format: functional
# HCT-116 [41] = experiment: Induction of apoptosis in human HCT116 cells assessed as viable cells at 0.3 uM measured after 48 hrs by Annexin-V-FITC/propidium iodide staining based flow cytometric method (reference value: 99.6%); format: functional; conditions: HCT-116, 48 h, read-out: Activity
# HCT-116 [42] = experiment: Cell cycle arrest human HCT116 cells assessed as increase in accumulation at subG0/G1 phase at 0.3 uM after 48 hrs by propidium iodide/RNase staining based FACS analysis; format: functional
# HCT-116 [43] = experiment: Cell cycle arrest human HCT116 cells assessed as increase in accumulation at G2/M phase at 0.3 uM after 48 hrs by propidium iodide/RNase staining based FACS analysis; format: functional
# HCT-116 [44] = experiment: Cell cycle arrest human HCT116 cells assessed as decrease in accumulation at G1 phase at 0.3 uM after 48 hrs by propidium iodide/RNase staining based FACS analysis; format: functional
# HCT-116 [45] = experiment: Cell cycle arrest human HCT116 cells assessed as decrease in accumulation at S phase at 0.3 uM after 48 hrs by propidium iodide/RNase staining based FACS analysis; format: functional
structure (smiles),measurement,setting,value
O=C(N/N=C1/c2cccnc2-n2cccc21)c1cccs1,IC50,HCT-116 [1],460 nM
same,IC50,MCF7 [2],3.15 µM
same,Activity,Caco-2,Non-Toxic
COc1ccc(-c2csc3c2-n2cccc2C3=O)cc1O,IC50,[3],2900 nM
O=C(N/N=C1/c2cc(Br)cnc2-n2cccc21)c1ccncc1,IC50,HCT-116 [1],110 nM
same,IC50,MCF7 [2],3.4 µM
same,Activity,Caco-2,Non-Toxic
same,Activity,MCF7 [4],24%
same,Activity,MCF7 [5],0%
same,Activity,MCF7 [6],0%
same,viability at 3 µM,MCF7 [7],76%
same,Activity,HCT-116 [8],26.7%
same,Activity,HCT-116 [9],0%
same,Activity,HCT-116 [10],0%
same,viability at 0.1 µM,HCT-116 [11],73.3%
same,Activity,MCF7 [12],Active
same,Activity,HCT-116 [13],Active
same,Activity,MCF7 [14],Active
same,Activity,HCT-116 [15],Active
same,Activity,MCF7 [16],Active
same,Activity,HCT-116 [17],Active
same,Activity,MCF7 [18],Active
same,Activity,HCT-116 [19],Active
same,inhibition,Sus scrofa [20],inactive
O=C(N/N=C1/c2ncccc2-n2cccc21)c1ccccc1,GI50,HCT-116 [1],4.25 µM
same,GI50,MCF7 [2],20.7 µM
O=C(N/N=C1/c2cc(Br)cnc2-n2cccc21)c1ccccc1,IC50,HCT-116 [1],1740 nM
same,IC50,MCF7 [2],14.9 µM
same,Activity,Caco-2,Non-Toxic
O=C(N/N=C1/c2cccnc2-n2cccc21)c1ccc(O)cc1,IC50,HCT-116 [1],2540 nM
same,IC50,MCF7 [2],16.1 µM
same,Activity,Caco-2,Non-Toxic
CC(=O)O[C@H]1C(=O)[C@@]2(C)[C@H]([C@H](OC(=O)c3ccccc3)[C@]3(O)C[C@H](OC(=O)[C@H](O)[C@@H](NC(=O)c4ccccc4)c4ccccc4)C(C)=C1C3(C)C)[C@]1(OC(C)=O)CO[C@@H]1C[C@@H]2O,Activity,Sus scrofa [21],Active
O=C(N/N=C1/c2cc(Br)cnc2-n2cccc21)c1ccco1,IC50,HCT-116 [1],170 nM
same,IC50,MCF7 [2],1.61 µM
same,Activity,Caco-2,Non-Toxic
same,Activity,MCF7 [22],21.8%
same,Activity,MCF7 [23],0%
same,Activity,MCF7 [24],0%
same,viability at 2 µM,MCF7 [25],78.2%
same,Activity,HCT-116 [26],31.5%
same,Activity,HCT-116 [27],0%
same,Activity,HCT-116 [28],0%
same,viability at 0.2 µM,HCT-116 [29],68.4%
same,Activity,MCF7 [30],Active
same,Activity,HCT-116 [31],Active
same,Activity,MCF7 [32],Active
same,Activity,HCT-116 [33],Active
same,Activity,MCF7 [34],Active
same,Activity,HCT-116 [35],Active
same,Activity,MCF7 [36],Active
same,Activity,HCT-116 [37],Active
same,inhibition,Sus scrofa [20],inactive
O=C(N/N=C1/c2cc(Br)cnc2-n2cccc21)c1ccc(O)cc1,IC50,HCT-116 [1],1660 nM
same,IC50,MCF7 [2],15.6 µM
same,Activity,Caco-2,Non-Toxic
Nc1ccc(C(=O)N/N=C2/c3cc(Br)cnc3-n3cccc32)cc1,IC50,HCT-116 [1],230 nM
same,IC50,MCF7 [2],1.8 µM
same,Activity,Caco-2,Non-Toxic
same,Activity,MCF7 [22],24.8%
same,Activity,MCF7 [23],0%
same,Activity,MCF7 [24],0%
same,viability at 2 µM,MCF7 [25],75.2%
same,Activity,HCT-116 [38],32.9%
same,Activity,HCT-116 [39],0%
same,Activity,HCT-116 [40],0%
same,viability at 0.3 µM,HCT-116 [41],67%
same,Activity,MCF7 [30],Active
same,Activity,HCT-116 [42],Active
same,Activity,MCF7 [32],Active
same,Activity,HCT-116 [43],Active
same,Activity,MCF7 [34],Active
same,Activity,HCT-116 [44],Active
same,Activity,MCF7 [36],Active
same,Activity,HCT-116 [45],Active
same,inhibition,Sus scrofa [20],inactive
